Experimental data: ChEMBL document CHEMBL4715697, “Synthesis and biological activity of benzamide DNA minor groove binders” (2016)

Assays:
Assay type in all cases: functional
Conditions in all cases: read-out: Activity
[1] = test system: HL-60(TB); assay: Growth inhibition of human HL-60(TB) cells assessed as cell growth at 10 uM incubated for 48 hrs by sulforhodamine B assay relative to control
[2] = test system: K562; assay: Growth inhibition of human K562 cells assessed as cell growth at 10 uM incubated for 48 hrs by sulforhodamine B assay relative to control
[3] = test system: MOLT-4; assay: Growth inhibition of human MOLT-4 cells assessed as cell growth at 10 uM incubated for 48 hrs by sulforhodamine B assay relative to control
[4] = test system: A549; assay: Growth inhibition of human A549/ATCC cells assessed as cell growth at 10 uM incubated for 48 hrs by sulforhodamine B assay relative to control
[5] = test system: EKVX; assay: Growth inhibition of human EKVX cells assessed as cell growth at 10 uM incubated for 48 hrs by sulforhodamine B assay relative to control
[6] = test system: HOP-62; assay: Growth inhibition of human HOP-62 cells assessed as cell growth at 10 uM incubated for 48 hrs by sulforhodamine B assay relative to control
[7] = test system: NCI-H226; assay: Growth inhibition of human NCI-H226 cells assessed as cell growth at 10 uM incubated for 48 hrs by sulforhodamine B assay relative to control
[8] = test system: NCI-H23; assay: Growth inhibition of human NCI-H23 cells assessed as cell growth at 10 uM incubated for 48 hrs by sulforhodamine B assay relative to control
[9] = test system: NCI-H322M; assay: Growth inhibition of human NCI-H322M cells assessed as cell growth at 10 uM incubated for 48 hrs by sulforhodamine B assay relative to control
[10] = test system: NCI-H522; assay: Growth inhibition of human NCI-H522 cells assessed as cell growth at 10 uM incubated for 48 hrs by sulforhodamine B assay relative to control
[11] = test system: HCC 2998; assay: Growth inhibition of human HCC 2998 cells assessed as cell growth at 10 uM incubated for 48 hrs by sulforhodamine B assay relative to control
[12] = test system: HCT-116; assay: Growth inhibition of human HCT-116 cells assessed as cell growth at 10 uM incubated for 48 hrs by sulforhodamine B assay relative to control
[13] = test system: HCT-15; assay: Growth inhibition of human HCT-15 cells assessed as cell growth at 10 uM incubated for 48 hrs by sulforhodamine B assay relative to control
[14] = test system: HT-29; assay: Growth inhibition of human HT-29 cells assessed as cell growth at 10 uM incubated for 48 hrs by sulforhodamine B assay relative to control
[15] = test system: KM12; assay: Growth inhibition of human KM12 cells assessed as cell growth at 10 uM incubated for 48 hrs by sulforhodamine B assay relative to control
[16] = test system: SW-620; assay: Growth inhibition of human SW-620 cells assessed as cell growth at 10 uM incubated for 48 hrs by sulforhodamine B assay relative to control
[17] = test system: SF-268; assay: Growth inhibition of human SF-268 cells assessed as cell growth at 10 uM incubated for 48 hrs by sulforhodamine B assay relative to control
[18] = test system: SF-539; assay: Growth inhibition of human SF-539 cells assessed as cell growth at 10 uM incubated for 48 hrs by sulforhodamine B assay relative to control
[19] = test system: SNB-75; assay: Growth inhibition of human SNB-75 cells assessed as cell growth at 10 uM incubated for 48 hrs by sulforhodamine B assay relative to control
[20] = test system: LOX IMVI; assay: Growth inhibition of human LOX IMVI cells assessed as cell growth at 10 uM incubated for 48 hrs by sulforhodamine B assay relative to control
[21] = test system: M14; assay: Growth inhibition of human M14 cells assessed as cell growth at 10 uM incubated for 48 hrs by sulforhodamine B assay relative to control
[22] = test system: SK-MEL-5; assay: Growth inhibition of human SK-MEL-5 cells assessed as cell growth at 10 uM incubated for 48 hrs by sulforhodamine B assay relative to control
[23] = test system: UACC-257; assay: Growth inhibition of human UACC-257 cells assessed as cell growth at 10 uM incubated for 48 hrs by sulforhodamine B assay relative to control
[24] = test system: IGROV-1; assay: Growth inhibition of human IGROV-1 cells assessed as cell growth at 10 uM incubated for 48 hrs by sulforhodamine B assay relative to control
[25] = test system: OVCAR-3; assay: Growth inhibition of human OVCAR-3 cells assessed as cell growth at 10 uM incubated for 48 hrs by sulforhodamine B assay relative to control
[26] = test system: OVCAR-5; assay: Growth inhibition of human OVCAR-5 cells assessed as cell growth at 10 uM incubated for 48 hrs by sulforhodamine B assay relative to control
[27] = test system: OVCAR-8; assay: Growth inhibition of human OVCAR-8 cells assessed as cell growth at 10 uM incubated for 48 hrs by sulforhodamine B assay relative to control
[28] = test system: NCI/ADR-RES; assay: Growth inhibition of human NCI/ADR-RES cells assessed as cell growth at 10 uM incubated for 48 hrs by sulforhodamine B assay relative to control
[29] = test system: SK-OV-3; assay: Growth inhibition of human SK-OV-3 cells assessed as cell growth at 10 uM incubated for 48 hrs by sulforhodamine B assay relative to control
[30] = test system: 786-0; assay: Growth inhibition of human 786-0 cells assessed as cell growth at 10 uM incubated for 48 hrs by sulforhodamine B assay relative to control
[31] = test system: CAKI-1; assay: Growth inhibition of human CAKI-1 cells assessed as cell growth at 10 uM incubated for 48 hrs by sulforhodamine B assay relative to control
[32] = test system: TK-10; assay: Growth inhibition of human TK-10 cells assessed as cell growth at 10 uM incubated for 48 hrs by sulforhodamine B assay relative to control
[33] = test system: UO-31; assay: Growth inhibition of human UO-31 cells assessed as cell growth at 10 uM incubated for 48 hrs by sulforhodamine B assay relative to control
[34] = test system: PC-3; assay: Growth inhibition of human PC-3 cells assessed as cell growth at 10 uM incubated for 48 hrs by sulforhodamine B assay relative to control
[35] = test system: DU-145; assay: Growth inhibition of human DU-145 cells assessed as cell growth at 10 uM incubated for 48 hrs by sulforhodamine B assay relative to control
[36] = test system: MCF7; assay: Growth inhibition of human MCF7 cells assessed as cell growth at 10 uM incubated for 48 hrs by sulforhodamine B assay relative to control
[37] = test system: MDA-MB-231; assay: Growth inhibition of human MDA-MB-231 cells assessed as cell growth at 10 uM incubated for 48 hrs by sulforhodamine B assay relative to control
[38] = test system: BT-549; assay: Growth inhibition of human BT-549 cells assessed as cell growth at 10 uM incubated for 48 hrs by sulforhodamine B assay relative to control
[39] = test system: T47D; assay: Growth inhibition of human T47D cells assessed as cell growth at 10 uM incubated for 48 hrs by sulforhodamine B assay relative to control
[40] = test system: MDA-MB-468; assay: Growth inhibition of human MDA-MB-468 cells assessed as cell growth at 10 uM incubated for 48 hrs by sulforhodamine B assay relative to control

Structure (SMILES)	growth at 10 µM [1] [%]	growth at 10 µM [2] [%]	growth at 10 µM [3] [%]	growth at 10 µM [4] [%]	growth at 10 µM [5] [%]	growth at 10 µM [6] [%]	growth at 10 µM [7] [%]	growth at 10 µM [8] [%]	growth at 10 µM [9] [%]	growth at 10 µM [10] [%]	growth at 10 µM [11] [%]	growth at 10 µM [12] [%]	growth at 10 µM [13] [%]	growth at 10 µM [14] [%]	growth at 10 µM [15] [%]	growth at 10 µM [16] [%]	growth at 10 µM [17] [%]	growth at 10 µM [18] [%]	growth at 10 µM [19] [%]	growth at 10 µM [20] [%]	also measured
CC(=O)Nc1cc(CCl)cc(NC(=O)c2ccc(C(=O)NCCCN(C)C)cc2)c1	104	106	105	98.5	101	106	105	97.8	116	98.7	90	103	104	103	107	108	106	92.8	86	95.2	growth at 10 µM [21]: 107%; growth at 10 µM [22]: 108%; growth at 10 µM [23]: 102%; growth at 10 µM [24]: 136%; growth at 10 µM [25]: 106%; growth at 10 µM [26]: 97.5%; growth at 10 µM [27]: 111%; growth at 10 µM [28]: 109%; growth at 10 µM [29]: 107%; growth at 10 µM [30]: 104%; growth at 10 µM [31]: 102%; growth at 10 µM [32]: 107%; growth at 10 µM [33]: 103%; growth at 10 µM [34]: 109%; growth at 10 µM [35]: 112%; growth at 10 µM [36]: 81.5%; growth at 10 µM [37]: 139%; growth at 10 µM [38]: 105%; growth at 10 µM [39]: 97.6%; growth at 10 µM [40]: 92.9%
CC(=O)Nc1cc(CCl)cc(NC(=O)c2ccc(C(=O)Nc3cccc(NC(=O)CCCN(C)C)c3)cc2)c1	101	113	102	101	86	106	93	93	108	104	99	106	93	104	104	107	101	100	82	92	growth at 10 µM [21]: 104%; growth at 10 µM [22]: 93%; growth at 10 µM [23]: 100%; growth at 10 µM [24]: 116%; growth at 10 µM [25]: 113%; growth at 10 µM [26]: 92%; growth at 10 µM [27]: 98%; growth at 10 µM [28]: 100%; growth at 10 µM [29]: 114%; growth at 10 µM [30]: 107%; growth at 10 µM [31]: 104%; growth at 10 µM [32]: 106%; growth at 10 µM [33]: 98%; growth at 10 µM [34]: 104%; growth at 10 µM [35]: 106%; growth at 10 µM [36]: 71%; growth at 10 µM [37]: 106%; growth at 10 µM [38]: 106%; growth at 10 µM [39]: 95%; growth at 10 µM [40]: 91%
